Measured values reported in patent US20090035345A1, “Nuclear Receptors Agonists for Treatment of Atherosclerosis and/or Related Cardiovascular Disease” (ACADEMISCH MEDISCH CENTRUM, BUREAU, priority 2005, published 2009).

Legend:
[1] = tested on: SMα-actin, calponin and p27Kip1 protein; assay: Western blotting of stretched venous SMCs; assay type: cell-based, human; conditions: 25 μM 6-MP
Description: Sodium dodecyl sulfate-polyacrylamide gel electrophoresis was performed with cell lysates (30 microg per lane) and concentrated culture media (equivalent of 200 microl per lane). Proteins were transferred to nitrocellulose-Protran (Schleicher and Schuell, 's-Hertogenbosch, The Netherlands).
Expression of p27^Kip1 (BD Biosciences, Alphen a/d Rijn, The Netherlands), p21^Cip1 (BD), SM alpha-actin (DAKO), PAI-1 (MAI-12; Biopool, Umea, Sweden), TR3 (M-210; Santa Cruz Biotechnology, Santa Cruz, Calif.), calponin (clone hCP; Sigma) and alpha-tubulin (Cedar Lane, Hornby, Ontario, Canada) was studied, using the indicated antibodies directed against these proteins. Primary antibodies were incubated overnight at 4° C. in 5% Protifar plus (Nutricia, Cuijk, The Netherlands) in TBS. As secondary antibodies, horseradish peroxidase-conjugated goat anti-rabbit (for p27^Kip1 and TR3 detection) or goat anti-mouse (for all others) (BioRad 11 Laboratories Inc., Hercules, Calif.) in a dilution of 1:5000 in TBS were used.
Proteins were visualized by enhanced chemiluminescence detection (Lumi-Light^PLUS; Roche Diagnostics GmbH, Mannheim, Germany). Quantitative analysis was performed by the Lumi-Imager (Boehringer Mannheim, Mannheim, Germany). alpha-Tubulin staining served as a control for loading.

Nur77 = target: T1, Nur77 (Homo sapiens, UniProt P22736); assay: Nur77 reporter (NurRE) luciferase assay in Nur77-expressing SMCs; assay type: cell-based
T1 construct: expressed in transfected cells; host or cells: cultured human smooth muscle cells (SMCs), lentivirally transduced
T1 sequence (P22736 whole entry): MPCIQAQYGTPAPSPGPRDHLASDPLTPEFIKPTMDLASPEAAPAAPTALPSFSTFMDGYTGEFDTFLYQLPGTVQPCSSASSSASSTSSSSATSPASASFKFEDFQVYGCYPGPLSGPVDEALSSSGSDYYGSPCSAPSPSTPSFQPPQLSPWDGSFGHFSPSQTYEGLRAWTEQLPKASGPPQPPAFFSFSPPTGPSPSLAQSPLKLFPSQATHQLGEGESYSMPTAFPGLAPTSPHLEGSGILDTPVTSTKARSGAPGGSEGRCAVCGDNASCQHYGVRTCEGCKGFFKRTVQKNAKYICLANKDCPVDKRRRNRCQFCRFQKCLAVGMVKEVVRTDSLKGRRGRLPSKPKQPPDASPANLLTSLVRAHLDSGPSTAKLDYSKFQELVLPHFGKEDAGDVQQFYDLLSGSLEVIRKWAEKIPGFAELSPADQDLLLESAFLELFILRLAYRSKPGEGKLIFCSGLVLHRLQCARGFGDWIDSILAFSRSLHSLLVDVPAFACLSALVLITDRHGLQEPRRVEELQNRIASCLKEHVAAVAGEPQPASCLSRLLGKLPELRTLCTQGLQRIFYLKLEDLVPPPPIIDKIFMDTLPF
Description: Cells were electroporated using the Amaxa method(Amaxa, Germany) with nucleofector reagent for SMCs. In each transfection, 0.5−1.0×10^6 cells were used and 3.5 μg Nur77-reporter plasmid with 1.5 μg Renilla luciferase plasmid (containing the thymidine kinase promoter) to correct for cell number and transfection efficiency. The NUR77-reporter plasmid contained the Nur response element (NurRE) of the POMC-promoter in triplicate with the −34/+63 minimal promoter of POMC gene.^19 24 hours after transfection, cells were incubated with 6-MP (Sigma) for 24 hours and luciferase activity was assayed with the Dual luciferase reporter system (Promega, Madison, Wis.).
To investigate whether 6-MP increases Nur77 transcriptional activity in vascular cells, human SMCs were transduced with lentivirus encoding Nur77, resulting in expression in 85-90% of the infected cells and increased Nur77 mRNA levels compared to mock-infected SMCs (data not shown). […] Nur77-overexpressing SMCs were subsequently electroporated with the firefly luciferase reporter construct, containing the palindromic NurRE (Nur77 response element from the POMC-promoter) sequence (TGATATTTn6AAATGCCA) to monitor Nur77 transcriptional activity in combination with the thymidine kinase-renilla luciferase construct as a control for transfection efficiency.

human SMCs = assay: DNA synthesis assay ([3H]thymidine incorporation) in FBS-stimulated cultured SMCs; assay type: cell-based
Description: Human SMCs were explanted from umbilical cord arteries. Cells were cultured in DMEM (Invitrogen Life Technology, Breda, The Netherlands) with 10% (v/v) fetal bovine serum (FBS) with penicillin and streptomycin (Invitrogen). Cells were used at passages five to seven. […] To determine cellular viability, cells were washed with PBS and subsequently incubated in medium in the presence of 0.5-mg/ml 3-(4,5-dimethylthiazol-2-yl)-2,5-diphenyltetrazolium bromide (MTT; Sigma Diagnostics, St. Louis). After two hours, medium was discarded, formazan crystals were dissolved in isopropanol and optical density was measured at 590 nm. Apoptosis was induced by incubating cells for 24 hours in medium with 0.25 μM staurosporine (Sigma). Subsequently, SMCs were fixed, stained with Hoechst dye and the relative number of apoptotic nuclei was determined.
SMCs were seeded in 24-well plates at 1−4×10^4 cells per well and reached 60% to 70% confluency after 24 hours. SMCs were made quiescent by incubation for 24 hours in FBS-free medium. 6-MP was dissolved in dimethylsulfoxide and applied one hour before FBS stimulation. SMCs were stimulated for 24 hours with 10% (v/v) FBS and subsequently cells were labeled for 18 hours with 0.25 μCi/well [methyl-3H]thymidine (Amersham Biosciences, Buckinghamshire, UK). Incorporated radioactivity was precipitated for 30 min at 4° C. with 10% (w/v) trichloroacetic acid, washed twice with 5% (w/v) trichloroacetic acid, and dissolved in 0.5 N NaOH (0.5 mL per well). Incorporated [^3H]thymidine was measured by liquid-scintillation counting.
(§1) The following small interfering (si)RNA sequences were used: Nur77 siRNA, 5′-CAG UCC AGC CAU GCU CCU C dTdT-3′, as described previously^20, and control siRNA, 5′-CAG ACG AGC CUU GCU CGU C dTdT-3′ (Ambion Inc., Austin, Tex.). Five μg of siRNA was transfected into 0.5−1×10^6 SMCs, using Nucleofector reagent for SMCs (Amaxa) as per the manufacturer's recommendations. Total mRNA was isolated five days after transfection, using the absolutely mRNA miniprep kit (Stratagene, La Jolla, Calif.). Subsequent cDNA synthesis was performed using the iScript cDNA synthesis kit (Biorad, Hercules, Calif.). Real-time polymerase chain reaction (PCR) was performed using SYBR green mix (Biorad) in the MyIQ System (Biorad). Primers for Nur77 were as follows: (forward) 5′-[…]-3′ and (reverse) 5′-[…]-3′. As a control for equal amount of first strand cDNA in different samples we corrected for Ribosomal Phosphoprotein (P0) mRNA levels, which were determined with the following primers (forward) 5′-[…]-3′ and (reverse) 5′-[…]-3′.
as §1, with “iscript” for “iScript”

Sc1ncnc2nc[nH]c12 [6-MP, 6-mercaptopurine]
SMα-actin and calponin as well as p27Kip1 protein expression [1]: increases | increase in Nur77 activity (luciferase) (Nur77; 50 μM, 24 hours): 10 fold | Nur77 transcriptional activity (Nur77; 24 hours in the presence of 6-MP): enhances Nur77 activity | DNA synthesis in SMCs (human SMCs; 25 μM or 50 μM): reduced | inhibition of DNA synthesis (human SMCs; SMCs transfected with Nur77 (TR3)-specific siRNA): 41% | inhibition of DNA synthesis (human SMCs; SMCs transfected with control siRNA): 61% | DNA synthesis in SMCs (human SMCs; increasing concentrations, 10% FBS): inhibits DNA synthesis
